Measurements taken from article PMC9143221 (Pharmaceuticals, 2022).
≈ marks a conversion by molar mass, not a printed value. Read-outs that look alike come from different tables or passages of the source. Bridge positions count the residues as written; N and C are the ends. Square brackets hold non-standard residues; d marks the D form. Ends that are not written are not given here. Peptide text beside a SMILES is read from it.

Tests used:
[1] = system: all the tested antibiotic-resistant pathogens (e.g., MRSA, Escherichia coli, Pseudomonas aeruginosa, and Klebsiella pneumoniae)
[2] = system: Pseudomonas aeruginosa #2
pseudo-EBOV (VSV-eGP) [3] = system: pseudo-EBOV (VSV-eGP)
SARS-CoV-2 WI = conditions: 2 h
[4] = system: Staphylococcus epidermidis 1457
[5] = system: Acinetobacter baumannii B28-16
[6] = system: Vero cells (ATCC, CCL-81)
pseudo-EBOV (VSV-eGP) [7] = format: cell-based, Ebola virus
[8] = system: Klebsiella pneumoniae E406-17
[9] = system: Calu-3 (ATCC, HTB-55) cells; conditions: 48 h
human red blood cells = conditions: red cells of human
[10] = system: HaCaT cells (human keratinocytes)
[11] = system: BALB/c mouse red blood cells

| Compound | Minimum inhibitory concentration, Pseudomonas aeruginosa #2 [2] | inhibition of SARS-CoV-2 (SARS-CoV-2 WI; 5 µM) | inhibition of SARS-CoV-2 (SARS-CoV-2 WI; 10 µM) | Minimum inhibitory concentration, Staphylococcus epidermidis 1457 [4] | Minimum inhibitory concentration, Acinetobacter baumannii B28-16 [5] | Minimum inhibitory concentration, S. aureus USA300 (S. aureus USA300) | Minimum inhibitory concentration, Escherichia coli E416-7 (Escherichia coli E416-7) | inhibition of VSV-eGP, treated immediately after infection (pseudo-EBOV (VSV-eGP) [7]) | Minimum inhibitory concentration, Klebsiella pneumoniae E406-17 [8] | hRBC HC50 (50% hemolytic concentration) (human red blood cells) | also measured |
| --- | --- | --- | --- | --- | --- | --- | --- | --- | --- | --- | --- |
| CC(C)C[C@@H](NC(=O)CN)C(=O)N[C@H](CCCNC(=N)N)C(=O)N[C@@H]1CSSC[C@H](C(=O)N[C@H](CC(C)C)C(=O)N[C@H](CC(C)C)C(=O)N[C@H](CCCNC(=N)N)C(=O)O)NC(=O)[C@@H](CCCNC(=N)N)NC(=O)CNC(=O)[C@@H](CC(C)C)NC(=O)[C@@H](CCCNC(=N)N)NC(=O)[C@@H](CCCNC(=N)N)NC(=O)[C@@H](CC(C)C)NC(=O)[C@@H](CC(C)C)NC(=O)[C@@H](CCCNC(=N)N)NC(=O)CNC(=O)[C@@H](CC(C)C)NC(=O)[C@@H](CCCNC(=N)N)NC1=O [DDIP1] (H-G[dL][dR][dC][dR][dL]G[dR][dL][dL][dR][dR][dL]G[dR][dC][dL][dL][dR]-OH; disulfide 4-16; N-terminus assumed) | 4 µM (≈ 9.12 µg/mL) | 42% | ~ 55% | 4 to 8 µM | 2 to 4 µM | 4 µM (≈ 9.12 µg/mL) | 2 µM (≈ 4.56 µg/mL) | ~ 15% | 4 µM (≈ 9.12 µg/mL) | – | MIC values against all the tested antibiotic-resistant pathogens [1]: 2 to 8 µM; inhibition against the virus (VSV-eGP) (pseudo-EBOV (VSV-eGP) [3]; 2 h, 2.5 µM): 7%; inhibition against the virus (VSV-eGP) (pseudo-EBOV (VSV-eGP) [3]; 2 h, 5 µM): 14%; Vero Cell TC50 [6]: 13.0 µM |
| CC[C@H](C)[C@H](NC(=O)[C@H](CCCCN)NC(=O)[C@H](CCC(=O)O)NC(=O)[C@H](CCCCN)NC(=O)[C@H](CO)NC(=O)[C@H](CCCCN)NC(=O)[C@H](CCCNC(=N)N)NC(=O)[C@H](Cc1ccccc1)NC(=O)[C@H](Cc1ccccc1)NC(=O)[C@H](CC(=O)O)NC(=O)CNC(=O)[C@H](CC(C)C)NC(=O)[C@@H](N)CC(C)C)C(=O)NCC(=O)N[C@@H](CCCCN)C(=O)N[C@@H](CCC(=O)O)C(=O)N[C@@H](Cc1ccccc1)C(=O)N[C@@H](CCCCN)C(=O)N[C@@H](CCCNC(=N)N)C(=O)N[C@H](C(=O)N[C@H](C(=O)N[C@@H](CCC(N)=O)C(=O)N[C@@H](CCCNC(=N)N)C(=O)N[C@H](C(=O)N[C@@H](CCCCN)C(=O)N[C@@H](CC(=O)O)C(=O)N[C@@H](Cc1ccccc1)C(=O)N[C@@H](CC(C)C)C(=O)N[C@@H](CCCNC(=N)N)C(=O)N[C@@H](CC(N)=O)C(=O)N[C@@H](CC(C)C)C(=O)N[C@H](C(=O)N1CCC[C@H]1C(=O)N[C@@H](CCCNC(=N)N)C(=O)N[C@H](C(=O)N[C@@H](CCC(=O)O)C(=O)N[C@@H](CO)C(=O)O)[C@@H](C)O)C(C)C)[C@@H](C)CC)C(C)C)[C@@H](C)CC [LL-37, reference compound] | – | 18% | ~ 27% | – | – | – | – | 9% | – | – | inhibition of VSV-eGP (in words) (pseudo-EBOV (VSV-eGP) [3]): higher viral inhibition than DDIP1; Calu3 Cell TC50 [9]: 19.1 µM |
| RWLRGLLSGLLR-NH2 [DFTavP3] | 4 to 8 µM | – | – | 8 µM | 4 µM | 4 µM | 2 to 4 µM | – | 8 µM | 50 µM | – |
| RWLRGLLSGLLRRLLS-NH2 [DFTavP2] | 8 µM | – | – | 2 µM | 2 µM | 4 µM | 4 µM | – | 4 µM | below 12.5 µM | decrease in the viral inhibition compared to DFTavP1 (pseudo-EBOV (VSV-eGP) [3]; 2 h, 5 µM): 33% |
| RWLRGLLSGLLRRLLSGLLL-NH2 [DFTavP1] | 32 µM | – | – | 8 to 16 µM | 8 µM | 8 to 16 µM | 16 µM | – | 16 to 32 µM | – | higher inhibition than LL-37 (pseudo-EBOV (VSV-eGP) [3]; 2 h, 2.5 µM): 18%; HaCaT TC50 (peptide concentration that killed 50% of human keratinocytes) [10]: 25 µM; hemolysis of murine red blood cells (in words) [11]: highly hemolytic; mRBC HC50 ([11]; red cells of mouse): <10 µM |
| RWVRGVVSGVVRRVVS-NH2 [DFTavP4] | – | – | – | – | – | >64 µM | 16 µM | – | – | – | – |
